Assay results as given in patent publication US6737383B1, “Herbicidal oxadiazolidines” (priority 1999, dated 2004).

Experiments:
bedstraw = test: Test B pre/postemergence bedstraw; format: in vivo, Galium aparine
Procedure, shortened: (§1)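 Response is a visual 0-to-10 score relative to untreated plants, where 0 means no effect and 10 means complete control, taken twelve to sixteen days after application. Treatments went onto soil at planting and onto foliage of 1- to 4-leaf plants, using a surfactant-containing non-phytotoxic solvent.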

blackgrass = test: Test B pre/postemergence blackgrass; format: in vivo, Alopecurus myosuroides
Procedure, shortened: as §1

surinam grass = test: Test B pre/postemergence surinam grass; format: in vivo, Brachiaria decumbens
Procedure, shortened: as §1

corn = test: Test B pre/postemergence corn; format: in vivo, Zea mays
Procedure, shortened: as §1

crabgrass = test: Test B pre/postemergence crabgrass; format: in vivo, Digitaria sanguinalis
Procedure, shortened: as §1

giant foxtail = test: Test B pre/postemergence giant foxtail; format: in vivo, Setaria faberii
Procedure, shortened: as §1

morningglory = test: Test B pre/postemergence morningglory; format: in vivo, Ipomoea hederacea
Procedure, shortened: as §1

pigweed = test: Test B pre/postemergence pigweed; format: in vivo, Amaranthus retroflexus
Procedure, shortened: as §1

rape = test: Test B pre/postemergence rape; format: in vivo, Brassica napus
Procedure, shortened: as §1

sugar beet = test: Test B pre/postemergence sugar beet; format: in vivo, Beta vulgaris
Procedure, shortened: as §1

wheat = test: Test B pre/postemergence wheat; format: in vivo, Triticum aestivum
Procedure, shortened: as §1

wild oat = test: Test B pre/postemergence wild oat; format: in vivo, Avena fatua
Procedure, shortened: as §1

purple nutsedge = test: Test B pre/postemergence purple nutsedge; format: in vivo, Cyperus rotundus
Procedure, shortened: as §1

rice = test: Test B flood test rice; format: in vivo, Oryza sativa
Procedure, shortened: (§2)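 Each value is a visual injury score relative to controls, with 10 meaning complete control and 0 no effect. Evaluation took place twelve to sixteen days after the 2-leaf-stage plants were treated and kept in the greenhouse.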

smallflower flatsedge = test: Test B flood test smallflower flatsedge; format: in vivo, Cyperus difformis
Procedure, shortened: as §2

bamyardgrass = test: Test B flood test barnyardgrass; format: in vivo, Echinochloa crus-galli
Procedure, shortened: as §2

[1] = Preemergence, Rate 250 g/ha, scale of 0 to 10 where 0 is no effect and 10 is complete control
[2] = Preemergence, Rate 500 g/ha, scale of 0 to 10 where 0 is no effect and 10 is complete control
[3] = Rate 62 g/ha, Postemergence, scale 0 to 10 (0 no effect, 10 complete control)
[4] = Rate 125 g/ha, Postemergence, scale of 0 to 10 where 0 is no effect and 10 is complete control
[5] = Rate 125 g/ha, Preemergence, scale of 0 to 10 where 0 is no effect and 10 is complete control
[6] = Rate 250 g/ha, Postemergence, scale of 0 to 10 where 0 is no effect and 10 is complete control
[7] = Rate 500 g/ha, Postemergence, scale 0 to 10, 0 no effect, 10 complete control
[8] = Preemergence, Rate 62 g/ha, scale of 0 to 10 where 0 is no effect and 10 is complete control
[9] = Rate 62 g/ha, headed Pre-emergence (flood test species), scale 0 to 10 (0 no effect, 10 complete control)
[10] = Rate 125 g/ha, Pre-emergence, flood test species, scale 0 to 10 where 0 is no effect and 10 is complete control
[11] = Rate 250 g/ha, Pre-emergence, flood-test species, scale 0 to 10, 0 is no effect, 10 is complete control
[12] = Rate 500 g/ha, Pre-emergence, flood test species, scale 0 to 10 (0 no effect, 10 complete control)

CC(C)N(C(=O)n1oc(=O)n(CC(C)(C)C)c1=O)c1ccc(F)cc1F [Compound 277]
Bedstraw plant response rating (bedstraw; [1]): 0
Plant response rating, Bedstraw (bedstraw; [2]): 2
Bedstraw plant response rating (bedstraw; [3]): 5
Bedstraw plant response rating (bedstraw; [4]): 6
Bedstraw plant response rating (bedstraw; [5]): 0
Plant response rating, Bedstraw (bedstraw; [6]): 8
Bedstraw plant response rating (bedstraw; [7]): 8
Blackgrass plant response rating (blackgrass; [1]): 10
Plant response rating, Blackgrass (blackgrass; [2]): 10
Blackgrass plant response rating (blackgrass; [3]): 2
Blackgrass plant response rating (blackgrass; [4]): 8
Blackgrass plant response rating (blackgrass; [5]): 9
Plant response rating, Blackgrass (blackgrass; [6]): 8
Blackgrass plant response rating (blackgrass; [7]): 8
B. signalgrass plant response rating (surinam grass; [1]): 10
Plant response rating, B. signalgrass (surinam grass; [2]): 10
B. signalgrass plant response rating (surinam grass; [3]): 0
B. signalgrass plant response rating (surinam grass; [4]): 0
B. signalgrass plant response rating (surinam grass; [5]): 9
Plant response rating, B. signalgrass (surinam grass; [6]): 1
B. signalgrass plant response rating (surinam grass; [7]): 3
Corn plant response rating (corn; [8]): 0
Corn plant response rating (corn; [1]): 0
Plant response rating, Corn (corn; [2]): 3
Corn plant response rating (corn; [3]): 0
Corn plant response rating (corn; [4]): 0
Corn plant response rating (corn; [5]): 0
Plant response rating, Corn (corn; [6]): 0
Corn plant response rating (corn; [7]): 0
Crabgrass plant response rating (crabgrass; [8]): 4
Crabgrass plant response rating (crabgrass; [1]): 9
Plant response rating, Crabgrass (crabgrass; [2]): 10
Crabgrass plant response rating (crabgrass; [3]): 1
Crabgrass plant response rating (crabgrass; [4]): 2
Crabgrass plant response rating (crabgrass; [5]): 4
Plant response rating, Crabgrass (crabgrass; [6]): 5
Crabgrass plant response rating (crabgrass; [7]): 6
Giant foxtail plant response rating (giant foxtail; [8]): 10
Giant foxtail plant response rating (giant foxtail; [1]): 10
Plant response rating, Giant foxtail (giant foxtail; [2]): 10
Giant foxtail plant response rating (giant foxtail; [3]): 2
Giant foxtail plant response rating (giant foxtail; [4]): 3
Giant foxtail plant response rating (giant foxtail; [5]): 10
Plant response rating, Giant foxtail (giant foxtail; [6]): 4
Giant foxtail plant response rating (giant foxtail; [7]): 6
Morningglory plant response rating (morningglory; [8]): 0
Morningglory plant response rating (morningglory; [1]): 0
Plant response rating, Morningglory (morningglory; [2]): 0
Morningglory plant response rating (morningglory; [3]): 7
Morningglory plant response rating (morningglory; [4]): 8
Morningglory plant response rating (morningglory; [5]): 0
Plant response rating, Morningglory (morningglory; [6]): 8
Morningglory plant response rating (morningglory; [7]): 9
Redroot pigweed plant response rating (pigweed; [1]): 0
Plant response rating, Redroot pigweed (pigweed; [2]): 5
Redroot pigweed plant response rating (pigweed; [3]): 1
Redroot pigweed plant response rating (pigweed; [4]): 2
Redroot pigweed plant response rating (pigweed; [5]): 0
Plant response rating, Redroot pigweed (pigweed; [6]): 4
Redroot pigweed plant response rating (pigweed; [7]): 5
Rape plant response rating (rape; [1]): 1
Plant response rating, Rape (rape; [2]): 2
Rape plant response rating (rape; [3]): 0
Rape plant response rating (rape; [4]): 2
Rape plant response rating (rape; [5]): 1
Plant response rating, Rape (rape; [6]): 3
Rape plant response rating (rape; [7]): 3
Sugarbeets plant response rating (sugar beet; [1]): 2
Plant response rating, Sugarbeets (sugar beet; [2]): 7
Sugarbeets plant response rating (sugar beet; [3]): 1
Sugarbeets plant response rating (sugar beet; [4]): 2
Sugarbeets plant response rating (sugar beet; [5]): 1
Plant response rating, Sugarbeets (sugar beet; [6]): 4
Sugarbeets plant response rating (sugar beet; [7]): 5
Wheat plant response rating (wheat; [1]): 0
Plant response rating, Wheat (wheat; [2]): 4
Wheat plant response rating (wheat; [3]): 0
Wheat plant response rating (wheat; [4]): 0
Wheat plant response rating (wheat; [5]): 0
Plant response rating, Wheat (wheat; [6]): 0
Wheat plant response rating (wheat; [7]): 0
Wild oats plant response rating (wild oat; [1]): 7
Plant response rating, Wild oats (wild oat; [2]): 8
Wild oats plant response rating (wild oat; [3]): 0
Wild oats plant response rating (wild oat; [4]): 0
Plant response rating, Wild oats (wild oat; [6]): 0
Wild oats plant response rating (wild oat; [7]): 2
Nutsedge plant response rating (purple nutsedge; [8]): 0
Nutsedge plant response rating (purple nutsedge; [1]): 0
Plant response rating, Nutsedge (purple nutsedge; [2]): 0
Nutsedge plant response rating (purple nutsedge; [3]): 0
Nutsedge plant response rating (purple nutsedge; [4]): 0
Nutsedge plant response rating (purple nutsedge; [5]): 0
Plant response rating, Nutsedge (purple nutsedge; [6]): 0
Nutsedge plant response rating (purple nutsedge; [7]): 0
Rice plant response rating (rice; [9]): 0
Rice plant response rating (rice; [10]): 0
Rice plant response rating (rice; [11]): 0
Rice plant response rating (rice; [12]): 2
S. Flatsedge plant response rating (smallflower flatsedge; [9]): 0
S. Flatsedge plant response rating (smallflower flatsedge; [10]): 0
S. Flatsedge plant response rating (smallflower flatsedge; [11]): 0
S. Flatsedge plant response rating (smallflower flatsedge; [12]): 5
Barnyardgrass plant response rating (bamyardgrass; [9]): 2
Barnyardgrass plant response rating (bamyardgrass; [10]): 2
Barnyardgrass plant response rating (bamyardgrass; [11]): 1
Barnyardgrass plant response rating (bamyardgrass; [12]): 9
